≈ marks a conversion by molar mass, not a printed value.

These results are taken from ChEMBL document CHEMBL3046102, “Antibacterial and antifungal activities of some trimethoprim salts” (2012).

For experiment [1], the system named is Pseudomonas aeruginosa. Description: microbe, parasite or virus in culture. The experiment is classed as functional. The note with it: ATCC 27853.
Description: Antibacterial activity against Pseudomonas aeruginosa ATCC 27853 after 24 to 48 hr by CLSI broth microdilution method
The test system of experiment [2] is Salmonella typhimurium. Description: microbe, parasite or virus in culture. The experiment is classed as functional, Salmonella enterica subsp. enterica serovar Typhimurium. The note with it: Salmonella enterica, NRLL B-4420.
Description: Antibacterial activity against Salmonella enterica subsp. enterica serovar Typhimurium NRRL B-4420 after 24 to 48 hr by CLSI broth microdilution method
For experiment [3], the system named is Nakaseomyces glabratus. Description: microbe, parasite or virus in culture. To be noted: ATCC 36583. The experiment is classed as functional.
Description: Antifungal activity against Candida glabrata ATCC 36583 after 24 to 48 hr by CLSI broth microdilution method
Experiment [4] has as its system Escherichia coli. Put plainly: microbe, parasite or virus in culture. To be noted: ATCC 35218. The experiment is classed as functional.
Description: Antibacterial activity against Escherichia coli ATCC 35218 after 24 to 48 hr by CLSI broth microdilution method
The subject of experiment [5] is Klebsiella pneumoniae. Put plainly: microbe, parasite or virus in culture. The experiment is classed as functional. To be noted: ATCC 700603.
Description: Antibacterial activity against Klebsiella pneumoniae ATCC 700603 after 24 to 48 hr by CLSI broth microdilution method
For experiment [6], the system named is Proteus vulgaris. Put plainly: microbe, parasite or virus in culture. The experiment is classed as functional. The note with it: NRLL B-123.
Description: Antibacterial activity against Proteus vulgaris NRLL B-123 after 24 to 48 hr by CLSI broth microdilution method
The test system of experiment [7] is Candida albicans. Description: microbe, parasite or virus in culture. The experiment is classed as functional. The note with it: NRRL Y-27077.
Description: Antifungal activity against Candida albicans NRRL Y-27077 after 24 to 48 hr by CLSI broth microdilution method
Experiment [8] has as its system Nakaseomyces glabratus. Put plainly: Antifungal activity against Candida glabrata clinical isolate after 24 to 48 hr by CLSI broth microdilution method. The experiment is classed as functional.
Experiment [9] relates to Enterococcus faecalis. Put plainly: microbe, parasite or virus in culture. The experiment is classed as functional. The note with it: ATCC 29212.
Description: Antibacterial activity against Enterococcus faecalis ATCC 29212 after 24 to 48 hr by CLSI broth microdilution method
Experiment [10] concerns Candida parapsilosis. Put plainly: microbe, parasite or virus in culture. The experiment is classed as functional. The note with it: Lodderomyces parapsilosis, NRRL Y-12969.
Description: Antifungal activity against Candida parapsilosis NRRL Y-12969 after 24 to 48 hr by CLSI broth microdilution method
Experiment [11] deals with [Candida] zeylanoides. Description: microbe, parasite or virus in culture. The experiment is classed as functional. The note with it: Dujonia zeylanoides, NRRL Y-1774.
Description: Antifungal activity against Candida zeylanoides NRRL Y-1774 after 24 to 48 hr by CLSI broth microdilution method
Experiment [12] deals with Candida albicans. Put plainly: Antifungal activity against Candida albicans clinical isolate after 24 to 48 hr by CLSI broth microdilution method. The experiment is classed as functional. Background: Broth dilution looks for growth in wells or tubes with falling amounts of substance.
For experiment [13], the system named is Cyberlindnera jadinii. Description: Antifungal activity against Cyberlindnera jadinii NRRL Y-900 after 24 to 48 hr by CLSI broth microdilution method. The experiment is classed as functional. The note with it: Williopsis jadinii.
For experiment [14], the system named is Pichia kudriavzevii. Description: microbe, parasite or virus in culture. The experiment is classed as functional. To be noted: NRRL Y-7179.
Description: Antifungal activity against Pichia kudriavzevii NRRL Y-7179 after 24 to 48 hr by CLSI broth microdilution method
Experiment [15] concerns Candida tropicalis. Put plainly: microbe, parasite or virus in culture. The experiment is classed as functional. To be noted: NRRL Y-12968.
Description: Antifungal activity against Candida tropicalis NRRL Y-12968 after 24 to 48 hr by CLSI broth microdilution method
The test system of experiment [16] is Staphylococcus aureus. Description: microbe, parasite or virus in culture. The experiment is classed as functional. The note with it: ATCC 25923.
Description: Antibacterial activity against Staphylococcus aureus ATCC 25923 after 24 to 48 hr by CLSI broth microdilution method

In the case of `COc1cc(Cc2cnc(N)nc2N)cc(OC)c1OC` [TRIMETHOPRIM], the MIC in [1], in [2], in experiment [3], in experiment [4], in [5] and in experiment [6] was 50 µg/mL (≈ 172 µM) each time. Moreover, the MIC was 50 µg/mL (≈ 172 µM) in [7], 25 µg/mL (≈ 86.1 µM) in experiment [8] and 50 µg/mL (≈ 172 µM) in experiment [9].

With `CC(=O)N1CCN(c2ccc(OCC3COC(Cn4ccnc4)(c4ccc(Cl)cc4Cl)O3)cc2)CC1` (configuration not stated) [KETOCONAZOLE], the MIC in experiment [10] is 1.56 µg/mL (≈ 2.94 µM); in experiment [3], 25 µg/mL (≈ 47 µM); in experiment [11] it was 25 µg/mL (≈ 47 µM); in experiment [12], 3.12 µg/mL (≈ 5.88 µM); in [7], 12.5 µg/mL (≈ 23.5 µM); in experiment [13], 12.5 µg/mL (≈ 23.5 µM). Also, the MIC in experiment [8] amounted to 3.12 µg/mL (≈ 5.88 µM); in experiment [14] it was 25 µg/mL (≈ 47 µM); in experiment [15] it was 12.5 µg/mL (≈ 23.5 µM).

Regarding `COc1cc(Cc2cnc(N)nc2N)cc(OC)c1OC.O=C(O)/C=C\C(=O)O` [TRIMETHOPRIM MALEIC ACID SALT], the MIC in experiment [1], in experiment [2], in experiment [3], in experiment [4], in [5] and in [6] was 50 µg/mL each time. The MIC in experiment [7], in experiment [8] and in experiment [9] was 50 µg/mL throughout.

For the compound `COc1cc(Cc2cnc(N)nc2N)cc(OC)c1OC.O.O.O=C(O)C(=O)O` [TRIMETHOPRIM OXALIC ACID SALT DIHYDRATE], the MIC in experiment [1], in experiment [2], in experiment [3], in [4], in experiment [5] and in [6] was 50 µg/mL throughout. Further, the MIC is 50 µg/mL in experiment [7], 25 µg/mL in [8] and 50 µg/mL in experiment [9].

On to `O=C(N[C@H](CO)[C@H](O)c1ccc([N+](=O)[O-])cc1)C(Cl)Cl` [CHLORAMPHENICOL], for which the MIC in experiment [1] stood at 50 µg/mL (≈ 155 µM); in experiment [2] it was 12.5 µg/mL (≈ 38.7 µM); in [5], 12.5 µg/mL (≈ 38.7 µM); in experiment [6] it was 50 µg/mL (≈ 155 µM); in experiment [16], 50 µg/mL (≈ 155 µM); in experiment [9], 12.5 µg/mL (≈ 38.7 µM).
